What follows are molecules tested on HCT116 cells (assay: Inhibition of proliferation of HCT116 cells by tomaymycin dimers (14C-thymidine incorporation)). Settings: Homo sapiens, HCT-116; HCT116, 3 days culture, 14C-thymidine incorporation at 96 h; read-out: Inhibition of proliferation (14C-thymidine pulse at 96 h) IC50 HCT116.
Format: cell-based
Description: (§1) Evaluation of the Inhibition of Proliferation of the Cell Lines MDA-MB-231, MDA-A1 and HCT116 with the Compounds of Formula (IA) with RCG1=—SZa (Za=SMe) or RCG1=—C(═O)ZbRb (ZbRb=OMe)
(§2) MDA-MB-231, MDA-A1 or HCT116 cells in their exponential growth phase were trypsinized and resuspended in their respective culture medium (DMEM/F12 Gibco #21331, 10% FCS Gibco #10500-056, […] Glutamine Gibco #25030 for the MDA cells; DMEM Gibco #11960, 10% FCS Gibco #10500-056, 2 mM Glutamine Gibco #25030 for the HCT116 cells). The cell suspension was seeded in Cytostar 96-well culture plates (GE Healthcare Europe, #RPNQ0163) in the complete culture medium containing serum to a density of 5000 cells/well (MDA-MB-231, MDA-A1, HCT116). After incubation for 4 hours, successive dilutions of the tomaymycin dimers were added to the wells in triplicate for each concentration. The cells were cultured for 3 days at 37° C. under an atmosphere of 5% CO2 in the presence of the cytotoxic agents. On the fourth day, 10 μl of a solution of ^14C-thymidine (0.1 μCi/well, Perkin Elmer #NEC56825000) were added to each well. The incorporation of ^14C-thymidine was measured 96 hours after the start of the experiment with a Microbeta radioactivity counter (Perkin Elmer). The data are expressed in the form of a percentage of survival by determining the ratio between the Count obtained with the cells treated with the cytotoxic agents and that obtained with the cells of the control wells (treated with the culture medium alone).

Structure (SMILES) | IC50 [nM]
C/C=C1\C[C@H]2C=Nc3cc(OCc4cc(OCCN(CCOCCOCCOC)CC(C)(C)SSC)cc(COc5cc6c(cc5OC)C(=O)N5C/C(=C/C)C[C@H]5C=N6)n4)c(OC)cc3C(=O)N2C1 | 0.061
C/C=C1\C[C@H]2C=Nc3cc(OCc4cc(OCCN(CCCC(=O)OCC)CCOCCOCCOC)cc(COc5cc6c(cc5OC)C(=O)N5C/C(=C/C)C[C@H]5C=N6)n4)c(OC)cc3C(=O)N2C1 | 0.018
C/C=C1\C[C@H]2C=Nc3cc(OCc4cc(OCCN(CCOCCOCCOC)CCC(=O)OC)cc(COc5cc6c(cc5OC)C(=O)N5C/C(=C/C)C[C@H]5C=N6)n4)c(OC)cc3C(=O)N2C1 | 0.235
C/C=C1\C[C@H]2C=Nc3cc(OCc4cc(OCCN(CCOCCOCCN5CCOCC5)CC(C)(C)SSC)cc(COc5cc6c(cc5OC)C(=O)N5C/C(=C/C)C[C@H]5C=N6)n4)c(OC)cc3C(=O)N2C1 | 0.048
C/C=C1\C[C@H]2C=Nc3cc(OCc4cc(OCCN(CCCC(=O)OCC)C(=O)CCOCCOCCOCCOC)cc(COc5cc6c(cc5OC)C(=O)N5C/C(=C/C)C[C@H]5C=N6)n4)c(OC)cc3C(=O)N2C1 | 4.98

These molecules were tested on MDA-MB-231 cells (assay: Inhibition of proliferation of MDA-MB-231 cells by tomaymycin dimers (14C-thymidine incorporation)). Settings: Homo sapiens, MDA-MB231, 3 days culture, 14C-thymidine incorporation at 96 h, read-out: Inhibition of proliferation (14C-thymidine pulse at 96 h) IC50 MDA-MB231.
Format: cell-based
Description: as §1, §2

Structure (SMILES) | IC50 [nM]
C/C=C1\C[C@H]2C=Nc3cc(OCc4cc(OCCN(CCOCCOCCOC)CC(C)(C)SSC)cc(COc5cc6c(cc5OC)C(=O)N5C/C(=C/C)C[C@H]5C=N6)n4)c(OC)cc3C(=O)N2C1 | 0.128
C/C=C1\C[C@H]2C=Nc3cc(OCc4cc(OCCN(CCCC(=O)OCC)CCOCCOCCOC)cc(COc5cc6c(cc5OC)C(=O)N5C/C(=C/C)C[C@H]5C=N6)n4)c(OC)cc3C(=O)N2C1 | 0.041
C/C=C1\C[C@H]2C=Nc3cc(OCc4cc(OCCN(CCOCCOCCOC)CCC(=O)OC)cc(COc5cc6c(cc5OC)C(=O)N5C/C(=C/C)C[C@H]5C=N6)n4)c(OC)cc3C(=O)N2C1 | 0.384
C/C=C1\C[C@H]2C=Nc3cc(OCc4cc(OCCN(CCOCCOCCN5CCOCC5)CC(C)(C)SSC)cc(COc5cc6c(cc5OC)C(=O)N5C/C(=C/C)C[C@H]5C=N6)n4)c(OC)cc3C(=O)N2C1 | 0.081
C/C=C1\C[C@H]2C=Nc3cc(OCc4cc(OCCN(CCCC(=O)OCC)C(=O)CCOCCOCCOCCOC)cc(COc5cc6c(cc5OC)C(=O)N5C/C(=C/C)C[C@H]5C=N6)n4)c(OC)cc3C(=O)N2C1 | 5.67

These molecules were tested on MDA-A1 cells (assay: Inhibition of proliferation of MDA-A1 cells by tomaymycin dimers (14C-thymidine incorporation)). Settings: MDA-A1, 3 days culture, 14C-thymidine incorporation at 96 h; read-out: Inhibition of proliferation (14C-thymidine pulse at 96 h) IC50 MDA-A1.
Format: cell-based
Description: as §1, §2

Structure (SMILES) | IC50 [nM]
C/C=C1\C[C@H]2C=Nc3cc(OCc4cc(OCCN(CCOCCOCCOC)CC(C)(C)SSC)cc(COc5cc6c(cc5OC)C(=O)N5C/C(=C/C)C[C@H]5C=N6)n4)c(OC)cc3C(=O)N2C1 | 16.3
C/C=C1\C[C@H]2C=Nc3cc(OCc4cc(OCCN(CCCC(=O)OCC)CCOCCOCCOC)cc(COc5cc6c(cc5OC)C(=O)N5C/C(=C/C)C[C@H]5C=N6)n4)c(OC)cc3C(=O)N2C1 | 3.46
C/C=C1\C[C@H]2C=Nc3cc(OCc4cc(OCCN(CCOCCOCCOC)CCC(=O)OC)cc(COc5cc6c(cc5OC)C(=O)N5C/C(=C/C)C[C@H]5C=N6)n4)c(OC)cc3C(=O)N2C1 | 17.8
C/C=C1\C[C@H]2C=Nc3cc(OCc4cc(OCCN(CCOCCOCCN5CCOCC5)CC(C)(C)SSC)cc(COc5cc6c(cc5OC)C(=O)N5C/C(=C/C)C[C@H]5C=N6)n4)c(OC)cc3C(=O)N2C1 | 26.5
C/C=C1\C[C@H]2C=Nc3cc(OCc4cc(OCCN(CCCC(=O)OCC)C(=O)CCOCCOCCOCCOC)cc(COc5cc6c(cc5OC)C(=O)N5C/C(=C/C)C[C@H]5C=N6)n4)c(OC)cc3C(=O)N2C1 | > 50

— US9056914B2, “Anticancer derivatives, preparation thereof and therapeutic use thereof” (priority 2010, dated 2015)
